Target: T1, GID4 (Uniprot ID: Q81VV7, residues 124-289) (Homo sapiens, UniProt Q8IVV7)
T1 construct: GID4 (Uniprot ID: Q81VV7, residues 124-289)
T1 sequence (Q8IVV7 124-289): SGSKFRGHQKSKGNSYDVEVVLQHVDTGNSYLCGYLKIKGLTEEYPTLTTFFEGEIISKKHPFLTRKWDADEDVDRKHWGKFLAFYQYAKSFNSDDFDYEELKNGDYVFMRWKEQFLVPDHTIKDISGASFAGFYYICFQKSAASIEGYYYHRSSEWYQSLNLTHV
Test: GID4 competitive binding assay (AlphaScreen, GID4/degron peptide PGLW)
Details: 24 nM GID4, 48 nM biotinylated degron peptide PGLW, 4° C., read-out: IC50 (Inhibition of GID4/Degron binding by test compounds)
Method in brief: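 His-tagged human GID4 (residues 124-289, 24 nM) pre-incubated 2 h at 4 °C with 48 nM biotinylated PGLW peptide and compound in HEPES pH 7.5 buffer, 2% DMSO (final). AlphaScreen streptavidin donor/Ni-NTA acceptor beads added for 1 h; IC50 from nonlinear fit of % inhibition versus DMSO.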

Row | IC50 | SMILES
1 | < 500 nM | c1ccn2c(C3CCCN(c4ccnc5[nH]ccc45)C3)cnc2c1 (centres unmarked) [Compound 91, 3-(1-(1H-pyrrolo[2,3-b]pyridin-4-yl)piperidin-3-yl)imidazo[1,2-a]pyridine]
2 | < 500 nM | CN1CC(CNC(=O)c2n[nH]c3ccc(-c4ccc5ccnc(N)c5c4)cc23)C1 [Compound 334, 5-(1-aminoisoquinolin-7-yl)-N-((1-methylazetidin-3-yl)methyl)-1H-indazole-3-carboxamide]
3 | < 500 nM | CC(C)c1cc(N2CCNC(c3cc(C(F)(F)F)ccc3Br)C2)nc(N)n1 (single isomer, unassigned) [Compound 13, (R/S)-4-(3-(2-bromo-5-(trifluoromethyl)phenyl)piperazin-1-yl)-6-isopropylpyrimidin-2-amine]
4 | < 500 nM | CN1CCN(c2cc(N)nc(N)n2)CC1c1ccccc1Br (single isomer, unassigned) [Compound 143, (R/S)-6-(3-(2-bromophenyl)-4-methylpiperazin-1-yl)pyrimidine-2,4-diamine]
5 | 500 to 5000 nM | CNC(=O)CCC1CCCN(c2nc(N)nc3c2CCCN3)C1 (centres unmarked) [Compound 140, 3-(1-(2-amino-5,6,7,8-tetrahydropyrido[2,3-d]pyrimidin-4-yl)piperidin-3-yl)-N-methylpropanamide]
6 | 500 to 5000 nM | CN(C)CCCNC(=O)c1ccc2c(-c3ccc4ccnc(N)c4c3)c[nH]c2c1 [Compound 359, 3-(1-aminoisoquinolin-7-yl)-N-(3-(dimethylamino)propyl)-1H-indole-6-carboxamide]
7 | 500 to 5000 nM | Nc1cc(N2CCCC(O)(c3ccccc3Br)C2)nc(N)n1 (centres unmarked) [Compound 234, 3-(2-bromophenyl)-1-(2,6-diaminopyrimidin-4-yl)piperidin-3-ol]
8 | > 5000 nM | CC(C)c1cc(N2CCCC(c3cnc4ccccn34)C2)ncn1 (racemic) [Compound 148, (R/S)-3-(1-(6-isopropylpyrimidin-4-yl)piperidin-3-yl)imidazo[1,2-a]pyridine]
9 | 500 to 5000 nM | Cc1cc(-c2cc(O)c3ncccc3c2)ccc1C(=O)NCCCN(C)C [Compound 311, N-(3-(dimethylamino)propyl)-4-(8-hydroxyquinolin-6-yl)-2-methylbenzamide]
10 | > 5000 nM | Brc1ccccc1C1CN(c2cc(NC3CC3)ncn2)CCN1 (centres unmarked) [Compound 79, 6-(3-(2-bromophenyl)piperazin-1-yl)-N-cyclopropylpyrimidin-4-amine]
11 | < 500 nM | CN(C)CCCNC(=O)c1ccc(-c2cc(O)c3ncccc3c2)s1 [Compound 296, N-(3-(dimethylamino)propyl)-5-(8-hydroxyquinolin-6-yl)thiophene-2-carboxamide]
12 | < 500 nM | CN1CCCC(CNC(=O)c2ccc(-c3cc(O)c4ncccc4c3)cc2)C1 (centres unmarked) [Compound 290, 4-(8-hydroxyquinolin-6-yl)-N-((1-methylpiperidin-3-yl)methyl)benzamide]
13 | 500 to 5000 nM | CN(C)CCCNC(=O)c1ccc(-c2cc(O)c3ncccc3c2)c(F)c1 [Compound 325, N-(3-(dimethylamino)propyl)-3-fluoro-4-(8-hydroxyquinolin-6-yl)benzamide]
14 | > 5000 nM | CC(C)c1cc(N2CCOC(c3cnc4ccccn34)C2)nc(N)n1 (racemic) [Compound 156, (R/S)-4-(2-(imidazo[1,2-a]pyridin-3-yl)morpholino)-6-isopropylpyrimidin-2-amine]
15 | < 500 nM | CN(C)CCCNC(=O)c1cnc(-c2cc(O)c3ncccc3c2)s1 [Compound 274, N-(3-(dimethylamino)propyl)-2-(8-hydroxyquinolin-6-yl)thiazole-5-carboxamide]
16 | < 500 nM | CC(C)c1cc(N2CCNC(c3ccc(F)cc3Br)C2)nc(N)n1 (centres unmarked) [Compound 173, 4-(3-(2-bromo-4-fluorophenyl)piperazin-1-yl)-6-isopropylpyrimidin-2-amine]

Second part, the compound before the results:

Row | SMILES | IC50
17 | CNc1nc(N)cc(N2CCCC(c3ccccc3Br)C2)n1 (centres unmarked) [Compound 85, 6-(3-(2-bromophenyl)piperidin-1-yl)-N^2-methylpyrimidine-2,4-diamine] | 500 to 5000 nM
18 | CN(C)CCCNC(=O)c1ncc(-c2cc(O)c3ncccc3c2)s1 [Compound 272, N-(3-(dimethylamino)propyl)-5-(8-hydroxyquinolin-6-yl)thiazole-2-carboxamide] | < 500 nM
19 | Nc1nccc2ccc(-c3ccc4[nH]cnc4c3)cc12 [Compound 362, 7-(1H-benzo[d]imidazol-5-yl)isoquinolin-1-amine] | 500 to 5000 nM
20 | Nc1cc(N2CCN(CCO)[C@@H](c3ccccc3Br)C2)nc(NC2CC2)n1 (stereo in doubt) [Compound 69, (S/R)-2-(4-(6-amino-2-(cyclopropylamino)pyrimidin-4-yl)-2-(2-bromophenyl)piperazin-1-yl)ethan-1-ol] | > 5000 nM
21 | Nc1cc(N2CCCC(c3cnc4ccncn34)C2)nc(N)n1 (centres unmarked) [Compound 258, 6-(3-(imidazo[1,2-c]pyrimidin-3-yl)piperidin-1-yl)pyrimidine-2,4-diamine] | 500 to 5000 nM
22 | Nc1cc(N2CCC=C(c3ncn4ccccc34)C2)nc(N)n1 [Compound 237, 6-(5-(imidazo[1,5-a]pyridin-1-yl)-3,6-dihydropyridin-1(2H)-yl)pyrimidine-2,4-diamine] | 500 to 5000 nM
23 | Nc1cc(N2CCN[C@@H](c3cc(C(F)(F)F)ccc3Br)C2)nc(N)n1 (racemic) [Compound 12, (S/R)-6-(3-(2-bromo-5-(trifluoromethyl)phenyl)piperazin-1-yl)pyrimidine-2,4-diamine] | < 500 nM
24 | CN(C)CCCNC(=O)c1cc(Cl)c(-c2cc(O)c3ncccc3c2)cc1Cl [Compound 322, 2,5-dichloro-N-(3-(dimethylamino)propyl)-4-(8-hydroxyquinolin-6-yl)benzamide] | < 500 nM
25 | Nc1cc(N2CCO[C@](CO)(c3ccccc3Br)C2)nc(N)n1 (stereo in doubt) [Compound 36, (R/S)-(2-(2-bromophenyl)-4-(2,6-diaminopyrimidin-4-yl)morpholin-2-yl)methanol] | > 5000 nM
26 | CN(C)CCCNC(=O)c1cccc(-c2ccc3ccnc(N)c3n2)c1 [Compound 340, 3-(8-amino-1,7-naphthyridin-2-yl)-N-(3-(dimethylamino)propyl)benzamide] | > 5000 nM
27 | CN(C)CCCNC(=O)CN1CC=C(c2cc(O)c3ncccc3c2)CC1 [Compound 307, N-(3-(dimethylamino)propyl)-2-(4-(8-hydroxyquinolin-6-yl)-3,6-dihydropyridin-1(2H)-yl)acetamide] | < 500 nM
28 | CNc1nc(C(C)C)cc(N2CCCC(c3cnc4ccccn34)C2)n1 (centres unmarked) [Compound 134, 4-(3-(imidazo[1,2-a]pyridin-3-yl)piperidin-1-yl)-6-isopropyl-N-methylpyrimidin-2-amine] | < 500 nM
29 | CC(C)c1cc(N2Cc3ccnn3C(c3ccccc3Br)C2)nc(N)n1 (centres unmarked) [Compound 2, 4-(7-(2-bromophenyl)-6,7-dihydropyrazolo[1,5-a]pyrazin-5(4H)-yl)-6-isopropylpyrimidin-2-amine] | 500 to 5000 nM
30 | CN(C)CCCNC(=O)c1ccc(-c2cc(O)c3ncccc3c2)c(Br)c1 [Compound 323, 3-bromo-N-(3-(dimethylamino)propyl)-4-(8-hydroxyquinolin-6-yl)benzamide] | 500 to 5000 nM
31 | Nc1nc(N2CCNC(c3ccccc3Br)C2)c2[nH]ccc2n1 (single isomer, unassigned) [Compound 42, (R/S)-4-(3-(2-bromophenyl)piperazin-1-yl)-5H-pyrrolo[3,2-d]pyrimidin-2-amine] | > 5000 nM
32 | CN1CC(CNC(=O)c2ccc(-c3cc(O)c4ncccc4c3)cc2)C1 [Compound 298, 4-(8-hydroxyquinolin-6-yl)-N-((1-methylazetidin-3-yl)methyl)benzamide] | < 500 nM
33 | Nc1nc2c(c(N3CCCC(c4ccn[nH]4)C3)n1)CSCC2 (centres unmarked) [Compound 208, 4-(3-(1H-pyrazol-5-yl)piperidin-1-yl)-7,8-dihydro-5H-thiopyrano[4,3-d]pyrimidin-2-amine] | > 5000 nM
34 | Nc1cc(N2CCOC(c3ccccc3Br)C2)nc(N)n1 (racemic) [Compound 145, (R/S)-6-(2-(2-bromophenyl)morpholino)pyrimidine-2,4-diamine] | 500 to 5000 nM
35 | CN(C)CCCNC(=O)c1ccc(-c2cc(O)c3ncccc3c2)c(F)c1Cl [Compound 310, 2-chloro-N-(3-(dimethylamino)propyl)-3-fluoro-4-(8-hydroxyquinolin-6-yl)benzamide] | 500 to 5000 nM
36 | CC(C)c1cc(N2CCCC(c3ccn[nH]3)C2)nc(N)n1 (centres unmarked) [Compound 210, 4-(3-(1H-pyrazol-5-yl)piperidin-1-yl)-6-isopropylpyrimidin-2-amine] | > 5000 nM
37 | Cn1nccc1-c1cc(N2CC3CCC(C2)N3)nc2c(-c3cc[nH]n3)nccc12 [Compound 364, 2-(3,8-diazabicyclo[3.2.1]octan-3-yl)-4-(1-methyl-1H-pyrazol-5-yl)-8-(1H-pyrazol-3-yl)-1,7-naphthyridine] | > 5000 nM
38 | CNc1cc(N2CCN(C)[C@@H](c3ccccc3Br)C2)nc(N)n1 (stereo in doubt) [Compound 155, (S/R)-6-(3-(2-bromophenyl)-4-methylpiperazin-1-yl)-N4-methylpyrimidine-2,4-diamine] | < 500 nM
39 | c1ccn2c(C3CCCN(c4ncnc5[nH]ccc45)C3)cnc2c1 (centres unmarked) [Compound 90, 4-(3-(imidazo[1,2-a]pyridin-3-yl)piperidin-1-yl)-7H-pyrrolo[2,3-d]pyrimidine] | > 5000 nM
40 | Nc1nc(N2CCCC(c3ccn[nH]3)C2)c2sccc2n1 (centres unmarked) [Compound 217, 4-(3-(1H-pyrazol-5-yl)piperidin-1-yl)thieno[3,2-d]pyrimidin-2-amine] | > 5000 nM
41 | CC(C)c1nc(N2CCCC(c3cnc4ccccn34)C2)c2nc[nH]c2n1 (centres unmarked) [Compound 376, 6-(3-(imidazo[1,2-a]pyridin-3-yl)piperidin-1-yl)-2-isopropyl-9H-purine] | < 500 nM

— patent publication US20240132464A1, “HETEROCYCLIC COMPOUNDS AS E3 LIGASE INHIBITORS” (Accutar Biotechnology Inc., priority 2022, published 2024)
